Assays:
[1] = biological target: T1, SRD5A3 (Homo sapiens, UniProt Q9H8P0); assay: Western blot assay in PC-3 cells: SRD5A3; assay type: cell-based; details: different concentrations at 24 h (FIG. 9)
T1 construct: The downregulation of SRD5A3 and GSPT1 (eRF3a) proteins in PC-3 and HepG2 cells by C59; endogenous in cells; host or cells: 22Rv1, PC-3, HepG2
T1 sequence (Q9H8P0 1-318): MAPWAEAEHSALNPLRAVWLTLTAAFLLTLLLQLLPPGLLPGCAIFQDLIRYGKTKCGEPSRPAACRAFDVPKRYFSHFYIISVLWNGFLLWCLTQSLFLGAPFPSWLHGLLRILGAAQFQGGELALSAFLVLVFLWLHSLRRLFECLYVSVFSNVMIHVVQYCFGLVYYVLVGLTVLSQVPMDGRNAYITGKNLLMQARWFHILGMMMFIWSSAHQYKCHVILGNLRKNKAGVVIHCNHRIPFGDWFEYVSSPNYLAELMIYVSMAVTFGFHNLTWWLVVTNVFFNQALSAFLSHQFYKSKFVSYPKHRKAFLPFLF
Description: (§1) Example 84: Western Blot Assay of Compound C59 in 22Rv1, PC-3, and HepG2 Cells
(§2) (1) Materials: 22Rv1, PC-3, and HepG2 cell, anti-SRD5A1 antibody (ab167606), anti-SRD5A2 antibody (ab124877), anti-SRD5A3 antibody (PA5-107029), anti-androgen receptor (AR) antibody (CST, No. 5153), anti-GSPT1 antibody (Abcam, ab234433), anti-GADPH antibody (CST, No. 5174), anti-c-Myc antibody (CST, No. 8583), anti-α-tublin antibody (CST, No. 2125), anti-rabbit IgG, HRP-linked antibody (CST, No. 7074), electrophoresis device and membrane transfer device (LIUYI, BEIJING; DYCZ-24DN)
(§3) Cell seeding: 22Rv1 (Cell Bank of the Chinese Academy of Sciences, TCHu100), PC-3 (Cell Bank of the Chinese Academy of Sciences, SCSP-532) and HepG2 cells (Cell Bank of the Chinese Academy of Sciences, TCHu72) were subcultured and trypsinized to prepare 6×10^5 cells/mL suspensions, seeded on 6-well plates (3 mL/well), and cultured overnight in a cell incubator at 5% CO2 and 37° C. […]
(§4) Protein quantification: The protein was quantified using a BCA protein quantification kit. […]
(§5) Western immunoblot assay (or Western blot, WB): SDS-PAGE gel at a proper concentration was prepared according to the molecular weight of the target protein: for example, the concentration of the separation gel was 8% and the concentration of the stacking gel was 5%. The loading volume was adjusted according to the protein quantification results. […]

[2] = biological target: T2, SRD5A1 (Homo sapiens, UniProt P18405); assay: Western blot assay in 22Rv1 cells: SRD5A1; assay type: cell-based; details: different concentrations at 24 h, and 3 nM at different time points (FIGS. 7 and 8)
T2 construct: The downregulation of SRD5A1, SRD5A3, AR, ARV7, GSPT1 proteins in 22Rv1 cells by C59; endogenous in cells; host or cells: 22Rv1
T2 sequence (P18405 whole entry): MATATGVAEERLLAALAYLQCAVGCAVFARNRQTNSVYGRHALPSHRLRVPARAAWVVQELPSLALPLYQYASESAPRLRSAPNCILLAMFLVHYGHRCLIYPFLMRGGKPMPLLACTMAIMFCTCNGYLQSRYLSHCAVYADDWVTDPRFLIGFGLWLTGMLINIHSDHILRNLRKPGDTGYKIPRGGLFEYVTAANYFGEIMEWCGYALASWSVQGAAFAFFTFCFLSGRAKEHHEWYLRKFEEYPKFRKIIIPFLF
Description: as §1, §2, §3, §4, §5

[3] = tested on: AR; assay: Western blot assay in 22Rv1 cells: AR; assay type: cell-based, human; details: different concentrations at 24 h, and 3 nM at different time points (FIGS. 7 and 8)
Description: as §1, §2, §3, §4, §5

[4] = tested on: Hep G2 cells; assay: Anti-proliferative toxicity of C63 in tumor cell lines (CCK8): Hep G2; assay type: cell-based; details: Homo sapiens, HepG2, 72 h, 3 days, read-out: Inhibition rate
Method: Example 83: Detection of Anti-Proliferative Toxicity of C63 in Some Tumor Cell Lines
HepG2 cells (purchased from the Cell Bank of the Chinese Academy of Sciences, Cat. No. TCHu72) were subcultured in a culture medium (MEM medium+1% penicillin-streptomycin dual-antibiotic solution+10% fetal bovine serum) in an incubator at 5% carbon dioxide and 37° C.
Hep G2 cells were seeded at 2000 cells/well (90 μL) on a 96-well plate and cultured for 24 h.
10 mM compound stock solutions were prepared in DMSO.
The compound stock solution was diluted with DMSO to give DMSO solutions 1-9 at concentrations of 0 μM, 2500 μM, 500 μM, 100 μM, 20 μM, 4 μM, 0.8 μM, 0.16 μM, and 0.032 μM.
2 μL of each of solutions 1-9 was added to 98 μL of the medium to give mixed solutions 11-19 of the compound and the medium.
10 μL of each of solutions 11-19 was added to the above cell seed solution to give a total volume of 100 μL (90 μL+10 μL).
The concentrations of the compound in the wells were 0 μM, 5.0 μM, 1.0 μM, 0.2 μM, 0.04 μM, 0.008 μM, 0.0016 μM, 0.00032 μM, and 0.000064 μM. All concentrations were in triplicate.
After the above-treated cells were cultured for 3 days, 10 μL of the CCK8 solution (DOJINDO, Cat. No. PF725) was added to each well. The plate was incubated in an incubator at 37° C. for 1-4 h and then detected on a microplate reader for the reading at 450 nm.

downregulation of SRD5A3 protein (Western blot) [1]	downregulation of SRD5A1 protein (Western blot) [2]	SMILES	downregulation of AR protein (Western blot) [3]	inhibition at 64 pM ([4]; 0.000064 μM)	inhibition at 0.00032 µM ([4]; 0.000320 μM)	inhibition at 0.0016 µM ([4]; 0.001600 μM)	inhibition at 0.008 µM ([4]; 0.008000 μM)	inhibition at 0.04 µM ([4]; 0.040000 μM)	inhibition at 0.2 µM ([4]; 0.200000 μM)	inhibition at 1 µM ([4]; 1.000000 μM)	inhibition at 5 µM ([4]; 5.000000 μM)
downregulation	downregulation	C[C@]12C=CC(=O)N[C@@H]1CC[C@@H]1[C@@H]2CC[C@]2(C)[C@@H](C(=O)Nc3cccc(N[C@@H]4CCC[C@@H](Nc5cccc6c5C(=O)N(C5CCC(=O)NC5=O)C6=O)C4)c3)CC[C@@H]12 (stereo partly drawn) [C59, N-(3-(N—(N-(4-(2-(3-(2,6-dioxopiperidine))-isoindole-1,3-dione))-1R,3R-cyclohexanediamine))phenyl)-3-oxo-4-aza-5α-androst-1-ene-17β-carboxamide]	downregulation	–	–	–	–	–	–	–	–
–	–	C[C@]12C=CC(=O)N[C@@H]1CC[C@@H]1[C@@H]2CC[C@]2(C)[C@@H](C(=O)Nc3cccc(N[C@@H]4CCC[C@@H](Nc5cccc6c5C(=O)N([C@H]5CCC(=O)NC5=O)C6=O)C4)c3)CC[C@@H]12 [C63, N-(3-(N—(N-(4-(2-(3S-(2,6-dioxopiperidine))-isoindole-1,3-dione))-1R,3R-cyclohexanediamine))phenyl)-3-oxo-4-aza-5α-androst-1-ene-17β-carboxamide]	–	1.97%	14.1%	66.9%	79.3%	87.1%	87.3%	85.7%	81.1%

From US20250213701A1, “MEDICAMENT FOR TREATING HUMAN TUMOR BASED ON ERF3A-TARGETING PROTEOLYSIS MECHANISM” (SUZHOU DEGEN BIO-MEDICAL CO., LTD., priority 2022, published 2025)
